Measurements published in US20050282743A1, “Molecular interactions in cells” (Arbor Vita Corporation, priority 2001, published 2005).
Ends that are not written are not given here. Peptide text beside a SMILES is read from it. * marks the point of attachment. Biotin = O=C1N[C@H]2[C@H](CS[C@H]2CCCCC(=O)*)N1

Tests used:
Assay in all cases: G' assay (10 uM PL peptide), results of TABLE 7 and TABLE 12
Format in all cases: binding
[1] = molecular target: T1, PDZ protein (GST-PDZ fusion) (Homo sapiens, UniProt Q9NZN5); conditions: PDZ KIAA0382, PDZ Domain 1
T1 construct: made in house; host or cells: E. coli (DH5alpha, BL21 or JM109)
T1 sequence (Q9NZN5 whole entry, the tested form may be a part): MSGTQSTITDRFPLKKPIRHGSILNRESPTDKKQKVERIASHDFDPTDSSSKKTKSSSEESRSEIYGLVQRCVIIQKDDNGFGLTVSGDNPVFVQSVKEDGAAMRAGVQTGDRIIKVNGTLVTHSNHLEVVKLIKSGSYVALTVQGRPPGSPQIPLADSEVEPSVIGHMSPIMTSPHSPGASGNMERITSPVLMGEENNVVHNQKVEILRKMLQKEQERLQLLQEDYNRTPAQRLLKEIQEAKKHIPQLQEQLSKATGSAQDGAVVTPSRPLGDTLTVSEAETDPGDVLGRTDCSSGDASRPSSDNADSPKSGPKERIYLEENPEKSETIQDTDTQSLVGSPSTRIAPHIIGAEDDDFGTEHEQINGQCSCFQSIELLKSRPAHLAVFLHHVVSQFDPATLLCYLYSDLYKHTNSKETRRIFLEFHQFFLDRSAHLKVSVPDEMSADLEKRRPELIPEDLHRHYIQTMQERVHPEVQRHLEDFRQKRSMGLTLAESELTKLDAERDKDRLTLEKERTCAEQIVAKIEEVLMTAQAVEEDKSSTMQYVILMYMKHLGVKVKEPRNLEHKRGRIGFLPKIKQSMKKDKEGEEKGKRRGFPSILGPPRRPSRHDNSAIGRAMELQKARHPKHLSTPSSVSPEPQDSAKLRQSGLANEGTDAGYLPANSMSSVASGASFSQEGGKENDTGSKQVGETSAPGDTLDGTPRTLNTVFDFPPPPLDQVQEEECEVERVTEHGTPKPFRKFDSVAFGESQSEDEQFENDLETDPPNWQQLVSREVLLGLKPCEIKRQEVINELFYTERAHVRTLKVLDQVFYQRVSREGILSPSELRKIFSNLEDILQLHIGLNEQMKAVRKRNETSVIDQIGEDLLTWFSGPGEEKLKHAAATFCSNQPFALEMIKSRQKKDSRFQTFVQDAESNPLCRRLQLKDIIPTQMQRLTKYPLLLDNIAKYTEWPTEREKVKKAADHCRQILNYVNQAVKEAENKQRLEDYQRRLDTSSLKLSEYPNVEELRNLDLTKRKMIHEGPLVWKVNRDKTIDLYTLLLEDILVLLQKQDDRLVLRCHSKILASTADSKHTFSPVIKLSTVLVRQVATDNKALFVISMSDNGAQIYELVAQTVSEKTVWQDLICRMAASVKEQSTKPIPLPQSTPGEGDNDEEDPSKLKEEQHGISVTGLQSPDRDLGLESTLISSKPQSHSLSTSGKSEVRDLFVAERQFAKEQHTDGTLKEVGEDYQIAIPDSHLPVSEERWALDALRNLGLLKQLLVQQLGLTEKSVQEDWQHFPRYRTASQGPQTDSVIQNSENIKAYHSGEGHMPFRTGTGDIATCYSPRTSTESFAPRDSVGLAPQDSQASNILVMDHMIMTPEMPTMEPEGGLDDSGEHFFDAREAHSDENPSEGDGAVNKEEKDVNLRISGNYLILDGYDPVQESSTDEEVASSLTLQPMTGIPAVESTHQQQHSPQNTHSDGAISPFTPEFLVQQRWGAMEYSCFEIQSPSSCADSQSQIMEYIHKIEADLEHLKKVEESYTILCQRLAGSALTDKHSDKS
In short: (§1)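 Biotin-PL peptide (N-term label), 10 uM vs GST-PDZ; protein 5 ug/ml by default. A450 nm binned: 1 = 0-1, 2 = 1-2, 3 = 2-3, 4 = 3-4, 5 = >4 on >2 repeats, 0 = no binding.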

[2] = molecular target: T2, PDZ protein (GST-PDZ fusion) (Homo sapiens, UniProt Q13796); conditions: PDZ hAPXL, PDZ Domain 1
T2 construct: made in house; host or cells: E. coli (DH5alpha, BL21 or JM109)
T2 sequence (Q13796 whole entry, the tested form may be a part): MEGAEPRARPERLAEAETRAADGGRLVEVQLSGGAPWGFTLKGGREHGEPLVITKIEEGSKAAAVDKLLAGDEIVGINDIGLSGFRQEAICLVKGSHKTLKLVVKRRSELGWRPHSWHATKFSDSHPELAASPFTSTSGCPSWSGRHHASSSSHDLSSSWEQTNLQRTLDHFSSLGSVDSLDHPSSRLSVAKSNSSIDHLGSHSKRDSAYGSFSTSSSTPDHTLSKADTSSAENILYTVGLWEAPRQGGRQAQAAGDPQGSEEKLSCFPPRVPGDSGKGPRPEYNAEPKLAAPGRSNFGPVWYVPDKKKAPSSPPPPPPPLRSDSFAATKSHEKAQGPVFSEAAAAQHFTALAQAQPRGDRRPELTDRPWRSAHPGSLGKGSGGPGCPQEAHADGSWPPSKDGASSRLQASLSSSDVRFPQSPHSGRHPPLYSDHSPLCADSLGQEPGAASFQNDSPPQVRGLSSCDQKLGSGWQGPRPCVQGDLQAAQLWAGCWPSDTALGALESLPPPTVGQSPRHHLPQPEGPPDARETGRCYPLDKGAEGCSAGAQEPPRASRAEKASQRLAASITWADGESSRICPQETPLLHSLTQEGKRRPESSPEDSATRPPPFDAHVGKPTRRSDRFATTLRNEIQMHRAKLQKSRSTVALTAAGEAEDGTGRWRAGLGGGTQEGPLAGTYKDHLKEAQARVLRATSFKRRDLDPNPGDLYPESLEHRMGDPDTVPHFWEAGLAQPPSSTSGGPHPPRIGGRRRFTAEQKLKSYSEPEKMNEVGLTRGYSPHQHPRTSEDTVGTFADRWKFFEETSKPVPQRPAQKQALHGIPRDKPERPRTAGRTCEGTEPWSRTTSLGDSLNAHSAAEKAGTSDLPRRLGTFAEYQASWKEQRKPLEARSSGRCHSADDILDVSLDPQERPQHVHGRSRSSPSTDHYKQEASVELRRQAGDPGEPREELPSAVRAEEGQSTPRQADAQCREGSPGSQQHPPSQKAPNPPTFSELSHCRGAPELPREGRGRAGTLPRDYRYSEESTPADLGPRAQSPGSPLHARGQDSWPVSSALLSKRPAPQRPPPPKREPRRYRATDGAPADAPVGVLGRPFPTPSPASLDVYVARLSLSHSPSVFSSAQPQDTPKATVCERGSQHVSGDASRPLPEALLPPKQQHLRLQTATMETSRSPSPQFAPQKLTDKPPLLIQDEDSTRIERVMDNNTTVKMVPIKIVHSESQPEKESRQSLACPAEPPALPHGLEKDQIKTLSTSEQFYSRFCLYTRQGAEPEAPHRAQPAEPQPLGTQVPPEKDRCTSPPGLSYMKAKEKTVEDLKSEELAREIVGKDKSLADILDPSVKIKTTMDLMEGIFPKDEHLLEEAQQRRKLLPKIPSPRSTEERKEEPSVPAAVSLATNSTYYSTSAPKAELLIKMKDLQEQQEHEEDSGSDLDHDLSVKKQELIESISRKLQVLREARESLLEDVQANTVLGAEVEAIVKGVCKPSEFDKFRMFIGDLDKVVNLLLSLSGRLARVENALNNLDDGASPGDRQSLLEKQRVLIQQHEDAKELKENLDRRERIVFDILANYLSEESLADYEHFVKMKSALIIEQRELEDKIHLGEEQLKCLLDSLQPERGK
In short: as §1

[3] = molecular target: T3, PDZ protein (GST-PDZ fusion) (Homo sapiens, UniProt Q86UL8)
T3 construct: made in house; host or cells: E. coli (DH5alpha, BL21 or JM109)
T3 sequence (Q86UL8 whole entry, the tested form may be a part): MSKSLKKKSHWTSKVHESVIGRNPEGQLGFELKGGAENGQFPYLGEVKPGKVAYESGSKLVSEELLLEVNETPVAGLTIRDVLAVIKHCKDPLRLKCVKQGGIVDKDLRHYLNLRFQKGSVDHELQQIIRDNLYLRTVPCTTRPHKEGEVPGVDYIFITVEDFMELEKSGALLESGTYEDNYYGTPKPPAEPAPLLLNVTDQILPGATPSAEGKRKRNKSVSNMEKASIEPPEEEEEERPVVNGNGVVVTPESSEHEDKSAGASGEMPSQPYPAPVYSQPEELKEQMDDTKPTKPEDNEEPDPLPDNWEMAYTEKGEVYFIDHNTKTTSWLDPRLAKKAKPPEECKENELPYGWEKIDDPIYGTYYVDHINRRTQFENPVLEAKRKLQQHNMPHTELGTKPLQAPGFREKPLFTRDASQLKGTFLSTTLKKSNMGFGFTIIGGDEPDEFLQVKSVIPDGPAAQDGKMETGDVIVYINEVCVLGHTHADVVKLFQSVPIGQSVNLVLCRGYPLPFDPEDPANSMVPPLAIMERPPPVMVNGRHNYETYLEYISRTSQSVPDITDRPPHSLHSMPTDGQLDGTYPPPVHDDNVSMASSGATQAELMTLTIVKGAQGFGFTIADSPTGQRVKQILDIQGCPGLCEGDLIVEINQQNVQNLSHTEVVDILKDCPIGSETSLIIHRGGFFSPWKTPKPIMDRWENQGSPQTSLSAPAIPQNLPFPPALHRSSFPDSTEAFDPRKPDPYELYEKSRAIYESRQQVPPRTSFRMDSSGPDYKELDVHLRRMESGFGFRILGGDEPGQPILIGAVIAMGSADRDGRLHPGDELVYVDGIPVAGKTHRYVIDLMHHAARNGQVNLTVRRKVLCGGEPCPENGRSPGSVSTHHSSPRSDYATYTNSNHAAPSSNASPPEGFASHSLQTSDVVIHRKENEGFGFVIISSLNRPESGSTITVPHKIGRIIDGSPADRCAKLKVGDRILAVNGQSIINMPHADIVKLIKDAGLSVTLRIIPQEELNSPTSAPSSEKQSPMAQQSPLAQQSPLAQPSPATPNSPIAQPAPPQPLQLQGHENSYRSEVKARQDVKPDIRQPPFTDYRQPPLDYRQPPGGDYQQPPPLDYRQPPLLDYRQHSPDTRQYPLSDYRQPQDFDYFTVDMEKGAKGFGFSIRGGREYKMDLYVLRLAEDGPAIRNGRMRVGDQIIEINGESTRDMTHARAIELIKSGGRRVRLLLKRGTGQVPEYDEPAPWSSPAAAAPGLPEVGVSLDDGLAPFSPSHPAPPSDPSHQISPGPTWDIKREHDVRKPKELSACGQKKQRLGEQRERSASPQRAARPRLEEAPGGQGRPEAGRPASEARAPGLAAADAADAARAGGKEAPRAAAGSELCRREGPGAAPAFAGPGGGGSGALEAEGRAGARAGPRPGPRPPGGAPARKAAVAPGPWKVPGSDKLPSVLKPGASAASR
In short: as §1

[4] = molecular target: T4, PDZ protein (GST-PDZ fusion) (Homo sapiens, UniProt Q8NI35); conditions: PDZ INADL
T4 construct: made in house; host or cells: E. coli (DH5alpha, BL21 or JM109)
In short: as §1

[5] = molecular target: T5, PDZ protein (GST-PDZ fusion) (Homo sapiens, UniProt Q02410)
T5 construct: made in house; host or cells: E. coli (DH5alpha, BL21 or JM109)
T5 sequence (Q02410 1-837): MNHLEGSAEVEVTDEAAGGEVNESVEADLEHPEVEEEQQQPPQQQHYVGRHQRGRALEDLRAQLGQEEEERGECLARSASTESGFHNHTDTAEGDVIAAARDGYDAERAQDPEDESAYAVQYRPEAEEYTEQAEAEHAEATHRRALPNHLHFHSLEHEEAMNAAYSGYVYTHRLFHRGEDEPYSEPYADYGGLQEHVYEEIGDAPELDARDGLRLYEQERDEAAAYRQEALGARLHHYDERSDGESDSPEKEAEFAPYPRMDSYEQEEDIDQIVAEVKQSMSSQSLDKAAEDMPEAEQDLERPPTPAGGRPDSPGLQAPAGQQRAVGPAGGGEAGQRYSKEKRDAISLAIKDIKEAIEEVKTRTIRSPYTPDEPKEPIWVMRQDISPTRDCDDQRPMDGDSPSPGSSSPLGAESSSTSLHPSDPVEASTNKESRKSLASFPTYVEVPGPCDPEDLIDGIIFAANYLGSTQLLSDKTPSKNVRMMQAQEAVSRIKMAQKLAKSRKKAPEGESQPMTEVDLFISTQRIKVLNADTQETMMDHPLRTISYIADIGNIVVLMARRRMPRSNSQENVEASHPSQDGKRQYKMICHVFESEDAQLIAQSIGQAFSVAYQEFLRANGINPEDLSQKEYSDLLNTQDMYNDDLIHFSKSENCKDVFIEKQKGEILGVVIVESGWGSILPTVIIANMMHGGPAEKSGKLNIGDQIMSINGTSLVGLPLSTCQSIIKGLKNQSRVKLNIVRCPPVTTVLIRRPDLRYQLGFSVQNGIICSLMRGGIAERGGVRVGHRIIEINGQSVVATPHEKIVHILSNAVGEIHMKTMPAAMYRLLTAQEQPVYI
In short: as §1

[6] = PDZ Atrophin-1 Inter. Prot., PDZ Domain 5

Molecule	Classification [1]	Classification [2]	Classification [3, 6]	Classification ([4]; PDZ Domain 3)	Classification ([4]; PDZ Domain 5)	Classification ([5]; PDZ Mint 1, PDZ Domain 1, 2)	Classification ([5]; PDZ Mint 1, PDZ Domain 2)	Classification ([4]; PDZ Domain 8)	Classification ([3]; PDZ atrophin-1 interacting Protein, PDZ Domain 1)	Classification ([3]; PDZ atrophin-1 interacting Protein, PDZ Domain 3)
CC[C@H](C)[C@H](NC(=O)[C@H](CO)NC(=O)[C@H](CCC(=O)O)NC(=O)[C@H](Cc1ccc(O)cc1)NC(=O)[C@H](CC(=O)O)NC(=O)[C@H](CC(N)=O)NC(=O)[C@H](CCC(=O)O)NC(=O)[C@H](CCCCN)NC(=O)CCCC[C@@H]1SC[C@@H]2NC(=O)N[C@@H]21)C(=O)N[C@@H](CO)C(=O)N[C@@H](CC(=O)O)C(=O)N[C@@H](CC(C)C)C(=O)N[C@@H](CCC(N)=O)C(=O)N[C@@H](CCC(N)=O)C(=O)NCC(=O)N[C@@H](CCCNC(=N)N)C(=O)N[C@@H](CC(=O)O)C(=O)N[C@H](C(=O)N[C@H](C(=O)N[C@@H](CCCNC(=N)N)C(=O)N[C@@H](CC(C)C)C(=O)O)[C@@H](C)O)[C@@H](C)CC [PAG] (Biotin-KENDYESISDLQQGRDITRL-OH; C-terminus assumed)	1 (A450 nm 0-1)	2 (A450 nm 1-2)	1 (A450 nm 0-1)	–	–	–	–	–	–	–
LASKSAEEGKQIPDSLSTDL (Biotin-LASKSAEEGKQIPDSLSTDL) [Dock2]	1 (A450 nm 0-1)	2 (A450 nm 1-2)	1 (A450 nm 0-1)	1 (A450 nm 0-1)	–	–	–	–	–	–
CC[C@H](C)[C@H](NC(=O)CNC(=O)[C@H](CO)NC(=O)[C@H](Cc1ccccc1)NC(=O)[C@@H](NC(=O)[C@H](CS)NC(=O)CNC(=O)CNC(=O)[C@H](C)NC(=O)[C@@H]1CCCN1C(=O)[C@@H](NC(=O)[C@@H]1CCCN1C(=O)CCCC[C@@H]1SC[C@@H]2NC(=O)N[C@@H]21)[C@@H](C)CC)[C@@H](C)O)C(=O)N[C@@H](Cc1ccccc1)C(=O)N1CCC[C@H]1C(=O)N[C@H](C(=O)N[C@@H](CC(C)C)C(=O)N[C@H](C(=O)N[C@@H](CO)C(=O)N1CCC[C@H]1C(=O)N[C@@H](CC(C)C)C(=O)O)[C@@H](C)O)[C@@H](C)O [KIA 1481] (Biotin-PIPAGGCTFSGIFPTLTSPL-OH; C-terminus assumed)	5 (A450 nm of 4 more than 2× repeated)	5 (A450 nm of 4 more than 2× repeated)	–	–	1 (A450 nm 0-1)	3 (A450 nm 2-3)	3 (A450 nm 2-3)	–	–	–
TQGFPGPATWRRISSLESEV	1 (A450 nm 0-1)	1 (A450 nm 0-1)	5 (A450 nm of 4 more than 2× repeated)	2 (A450 nm 1-2)	1 (A450 nm 0-1)	1 (A450 nm 0-1)	1 (A450 nm 0-1)	1 (A450 nm 0-1)	5 (A450 nm of 4 more than 2× repeated)	2 (A450 nm 1-2)
CC(C)C[C@H](NC(=O)[C@H](C)NC(=O)[C@@H](NC(=O)[C@@H](NC(=O)[C@H](Cc1c[nH]cn1)NC(=O)[C@H](CC(C)C)NC(=O)CNC(=O)[C@H](CCC(N)=O)NC(=O)CNC(=O)CNC(=O)[C@H](C)NC(=O)[C@H](C)NC(=O)[C@H](CCCNC(=N)N)NC(=O)[C@H](C)NC(=O)[C@H](CO)NC(=O)[C@H](CC(=O)O)NC(=O)[C@H](CC(=O)O)NC(=O)[C@H](Cc1c[nH]c2ccccc12)NC(=O)[C@H](C)NC(=O)CCCC[C@@H]1SC[C@@H]2NC(=O)N[C@@H]21)C(C)C)[C@@H](C)O)C(=O)O [LPAP] (Biotin-AWDDSARAAGGQGLHVTAL-OH; C-terminus assumed)	5 (A450 nm of 4 more than 2× repeated)	1 (A450 nm 0-1)	2 (A450 nm 1-2)	–	–	–	1 (A450 nm 0-1)	–	–	–
